Measured values as given in PubChem BioAssay AID2060888 (Molecular Pharmacology Branch, DTP, NCI, 2025).

Tested on: 695427-040-R-J1-PDC complex spheroid viability
Assay: Anticancer human tumor 695427-040-R-J1-PDC patient-derived colon adenocarcinoma cell line growth inhibition [RAS]
Conditions: for IC50: curve of first compound; for viability, T/C: stronger effect = lower value
Procedure, shortened: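 Agents were tested in combination matrices in half-log decrements from a top concentration at or near clinical Cmax (10 microM if undetermined). Targets were multi-cell spheroids of tumour lines plus HUVEC and MSC stromal cells.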
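Also: viability read after seven days of drug exposure.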
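For viability, T/C in this document: 100% = DMSO vehicle control viability.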

`CCC(CC)c1cc(NC2CCC(N)C2)n2nccc2n1` (centres undefined) + C=CC(=O)N1CCN(c2nc(OCC3CCCN3C)nc3c(F)c(-c4nc(N)cc(C)c4C(F)(F)F)c(Cl)cc23)C(C)C1 was tested, and the IC50 (second compound 0.00316 µM) was 1920 nM, the IC50 (second compound 0.01 µM) was 2070 nM and the IC50 (second compound 0.0316 µM) was 1950 nM. It also gave an IC50 (second compound 0.1 µM) of 1870 nM, an IC50 (second compound 0.316 µM) of 1950 nM and an IC50 (second compound 1 µM) of 1800 nM. For the same compound, the viability, T/C (second compound 0.00316 µM, first compound 0.0316 µM) was 93.3%, the viability, T/C (second compound 0.00316 µM, first compound 0.1 µM) was 94.8% and the viability, T/C (second compound 0.00316 µM, first compound 0.316 µM) was 109%. For the same compound, the viability, T/C (second compound 0.00316 µM, first compound 1 µM) was 106%, the viability, T/C (second compound 0.00316 µM, first compound 3.16 µM) was 9.52% and the viability, T/C (second compound 0.00316 µM, first compound 10 µM) was 12.3%. For the same compound, the viability, T/C (second compound 0.01 µM, first compound 0.0316 µM) was 105%, the viability, T/C (second compound 0.01 µM, first compound 0.1 µM) was 96.1% and the viability, T/C (second compound 0.01 µM, first compound 0.316 µM) was 119%. The viability, T/C (second compound 0.01 µM, first compound 1 µM) was 116%, the viability, T/C (second compound 0.01 µM, first compound 3.16 µM) was 15.3% and the viability, T/C (second compound 0.01 µM, first compound 10 µM) was 11.1%. The viability, T/C (second compound 0.0316 µM, first compound 0.0316 µM) was 105%, the viability, T/C (second compound 0.0316 µM, first compound 0.1 µM) was 99.4% and the viability, T/C (second compound 0.0316 µM, first compound 0.316 µM) was 105%. It also gave a viability, T/C (second compound 0.0316 µM, first compound 1 µM) of 101%, a viability, T/C (second compound 0.0316 µM, first compound 3.16 µM) of 13% and a viability, T/C (second compound 0.0316 µM, first compound 10 µM) of 11.9%. It also gave a viability, T/C (second compound 0.1 µM, first compound 0.0316 µM) of 100%, a viability, T/C (second compound 0.1 µM, first compound 0.1 µM) of 98.2% and a viability, T/C (second compound 0.1 µM, first compound 0.316 µM) of 116%. For the same compound, the viability, T/C (second compound 0.1 µM, first compound 1 µM) was 94.4%, the viability, T/C (second compound 0.1 µM, first compound 3.16 µM) was 13.1% and the viability, T/C (second compound 0.1 µM, first compound 10 µM) was 12.1%. For the same compound, the viability, T/C (second compound 0.316 µM, first compound 0.0316 µM) was 89.4%, the viability, T/C (second compound 0.316 µM, first compound 0.1 µM) was 95.8% and the viability, T/C (second compound 0.316 µM, first compound 0.316 µM) was 105%. It also gave a viability, T/C (second compound 0.316 µM, first compound 1 µM) of 111%, a viability, T/C (second compound 0.316 µM, first compound 3.16 µM) of 12.4% and a viability, T/C (second compound 0.316 µM, first compound 10 µM) of 14.7%. The viability, T/C (second compound 1 µM, first compound 0.0316 µM) was 89.9%, the viability, T/C (second compound 1 µM, first compound 0.1 µM) was 97.2% and the viability, T/C (second compound 1 µM, first compound 0.316 µM) was 105%. The viability, T/C (second compound 1 µM, first compound 1 µM) was 90.9%, the viability, T/C (second compound 1 µM, first compound 3.16 µM) was 7.42% and the viability, T/C (second compound 1 µM, first compound 10 µM) was 13.8%.

`NC1c2ccccc2OC12CCN(c1cnc3c(N4CCCc5ncccc54)n[nH]c3n1)CC2` (centres undefined) + CCn1c(-c2cc(N3CCN(C)CC3)cnc2C(C)OC)c2c3cc(ccc31)-c1csc(n1)CC(NC(=O)C1CC1C)C(=O)N1CCCC(N1)C(=O)OCC(C)(C)C2 was tested, and the IC50 (second compound 0.000949 µM) was 375 nM, the IC50 (second compound 0.003 µM) was 209 nM and the IC50 (second compound 0.00949 µM) was 72 nM. The IC50 (second compound 0.03 µM) was < 31.6 nM, the IC50 (second compound 0.0949 µM) was < 31.6 nM and the IC50 (second compound 0.3 µM) was < 31.6 nM. For the same compound, the viability, T/C (second compound 0.000949 µM, first compound 0.0316 µM) was 74.8%, the viability, T/C (second compound 0.000949 µM, first compound 0.1 µM) was 70.1% and the viability, T/C (second compound 0.000949 µM, first compound 0.316 µM) was 53.9%. It also gave a viability, T/C (second compound 0.000949 µM, first compound 1 µM) of 29.2%, a viability, T/C (second compound 0.000949 µM, first compound 3.16 µM) of 32.4% and a viability, T/C (second compound 0.000949 µM, first compound 10 µM) of 24.9%. It also gave a viability, T/C (second compound 0.003 µM, first compound 0.0316 µM) of 73.9%, a viability, T/C (second compound 0.003 µM, first compound 0.1 µM) of 59.2% and a viability, T/C (second compound 0.003 µM, first compound 0.316 µM) of 47%. It also gave a viability, T/C (second compound 0.003 µM, first compound 1 µM) of 24.4%, a viability, T/C (second compound 0.003 µM, first compound 3.16 µM) of 23.5% and a viability, T/C (second compound 0.003 µM, first compound 10 µM) of 20.5%. It also gave a viability, T/C (second compound 0.00949 µM, first compound 0.0316 µM) of 62.2%, a viability, T/C (second compound 0.00949 µM, first compound 0.1 µM) of 45.3% and a viability, T/C (second compound 0.00949 µM, first compound 0.316 µM) of 22.5%. The viability, T/C (second compound 0.00949 µM, first compound 1 µM) was 25.1%, the viability, T/C (second compound 0.00949 µM, first compound 3.16 µM) was 18.2% and the viability, T/C (second compound 0.00949 µM, first compound 10 µM) was 15.8%. It also gave a viability, T/C (second compound 0.03 µM, first compound 0.0316 µM) of 45.4%, a viability, T/C (second compound 0.03 µM, first compound 0.1 µM) of 36% and a viability, T/C (second compound 0.03 µM, first compound 0.316 µM) of 27.9%. For the same compound, the viability, T/C (second compound 0.03 µM, first compound 1 µM) was 21.1%, the viability, T/C (second compound 0.03 µM, first compound 3.16 µM) was 13.2% and the viability, T/C (second compound 0.03 µM, first compound 10 µM) was 16.8%. The viability, T/C (second compound 0.0949 µM, first compound 0.0316 µM) was 39.2%, the viability, T/C (second compound 0.0949 µM, first compound 0.1 µM) was 27.3% and the viability, T/C (second compound 0.0949 µM, first compound 0.316 µM) was 22.3%. It also gave a viability, T/C (second compound 0.0949 µM, first compound 1 µM) of 15.2%, a viability, T/C (second compound 0.0949 µM, first compound 3.16 µM) of 14.1% and a viability, T/C (second compound 0.0949 µM, first compound 10 µM) of 13.1%. For the same compound, the viability, T/C (second compound 0.3 µM, first compound 0.0316 µM) was 27.5%, the viability, T/C (second compound 0.3 µM, first compound 0.1 µM) was 27% and the viability, T/C (second compound 0.3 µM, first compound 0.316 µM) was 20.7%. For the same compound, the viability, T/C (second compound 0.3 µM, first compound 1 µM) was 14.5%, the viability, T/C (second compound 0.3 µM, first compound 3.16 µM) was 10.2% and the viability, T/C (second compound 0.3 µM, first compound 10 µM) was 15.5%.
